Reference: patent US20230295200A1 (REGENTS OF THE UNIVERSITY OF MICHIGAN, priority 2022, published 2023)

Target: T1, STAT6 protein (Homo sapiens, UniProt P42226)
T1 sequence (P42226 1-847): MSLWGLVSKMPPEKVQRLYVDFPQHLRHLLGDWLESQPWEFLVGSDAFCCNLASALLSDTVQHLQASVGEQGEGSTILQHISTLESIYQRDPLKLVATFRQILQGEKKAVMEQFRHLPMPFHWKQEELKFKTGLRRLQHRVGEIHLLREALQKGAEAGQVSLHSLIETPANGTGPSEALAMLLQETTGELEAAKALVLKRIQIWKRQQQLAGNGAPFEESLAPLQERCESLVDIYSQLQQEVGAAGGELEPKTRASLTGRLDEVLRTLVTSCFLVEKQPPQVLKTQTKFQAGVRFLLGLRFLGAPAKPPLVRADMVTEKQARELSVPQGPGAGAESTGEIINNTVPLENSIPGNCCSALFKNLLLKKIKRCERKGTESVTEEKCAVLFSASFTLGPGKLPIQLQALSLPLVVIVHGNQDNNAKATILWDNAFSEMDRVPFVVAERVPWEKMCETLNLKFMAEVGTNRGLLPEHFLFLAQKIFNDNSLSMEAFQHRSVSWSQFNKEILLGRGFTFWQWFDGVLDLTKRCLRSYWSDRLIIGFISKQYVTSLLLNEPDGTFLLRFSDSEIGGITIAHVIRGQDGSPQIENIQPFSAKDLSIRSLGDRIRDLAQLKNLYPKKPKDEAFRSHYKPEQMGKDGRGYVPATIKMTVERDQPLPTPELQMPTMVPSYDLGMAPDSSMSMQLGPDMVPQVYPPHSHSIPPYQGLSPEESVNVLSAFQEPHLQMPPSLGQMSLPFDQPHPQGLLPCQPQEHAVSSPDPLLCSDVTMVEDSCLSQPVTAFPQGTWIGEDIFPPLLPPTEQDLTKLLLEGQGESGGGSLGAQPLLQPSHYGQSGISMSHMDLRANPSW
Assay: Fluorescence polarization (FP) binding assay, STAT6
Conditions: FP competition, 5 nM fluorescein-labeled tracer, 200 nM protein, PBS pH7.4; read-out: Binding STAT6
Outline: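 Each well holds 200 nM STAT5 and/or STAT6 with 5 nM fluorescent tracer in PBS pH 7.4 (0.01% BGG, 0.01% Tween-20, 2 mM DTT). Binding reaches equilibrium over 1 h at room temperature after brief shaking, and polarization data are fitted nonlinearly.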

Structure (SMILES)	Ki [µM]
CC(=O)N1CC[C@H]2CC[C@@H](C(=O)N[C@@H](C)c3ccccc3)N2C(=O)[C@@H](NC(=O)c2cc3cc(C(F)(F)P(=O)(O)O)ccc3[nH]2)C1 [Compound 337, ((2-(((5S,8S,10aR)-3-acetyl-6-oxo-8-(((S)-1-phenylethyl)carbamoyl)decahydropyrrolo[1,2-a][1,5]diazocin-5-yl)carbamoyl)-1H-indol-5-yl)difluoromethyl)phosphonic acid]	1 to 10
CC(=O)N1CC[C@H]2CC[C@@H](C(=O)N[C@H](C)c3ccccc3)N2C(=O)[C@@H](NC(=O)c2cc3cc(C(F)(F)P(=O)(O)O)ccc3[nH]2)C1 [Compound 338, ((2-(((5S,8S,10aR)-3-acetyl-6-oxo-8-(((R)-1-phenylethyl)carbamoyl)decahydropyrrolo[1,2-a][1,5]diazocin-5-yl)carbamoyl)-1H-indol-5-yl)difluoromethyl)phosphonic acid]	> 10
CC(=O)N1CC[C@H]2CC[C@@H](C(=O)NC(C)(C)c3ccccc3)N2C(=O)[C@@H](NC(=O)c2cc3cc(C(F)(F)P(=O)(O)O)ccc3[nH]2)C1 [Compound 339, ((2-(((5S,8S,10aR)-3-acetyl-6-oxo-8-((2-phenylpropan-2-yl)carbamoyl)decahydropyrrolo[1,2-a][1,5]diazocin-5-yl)carbamoyl)-1H-indol-5-yl)difluoromethyl)phosphonic acid]	> 10
CC(=O)N1CC[C@H]2CC[C@@H](C(=O)NC3(c4ccccc4)CC3)N2C(=O)[C@@H](NC(=O)c2cc3cc(C(F)(F)P(=O)(O)O)ccc3[nH]2)C1 [Compound 340, ((2-(((5S,8S,10aR)-3-acetyl-6-oxo-8-((1-phenylcyclopropyl)carbamoyl)deca hydropyrrolo[1,2-a][1,5]diazocin-5-yl)carbamoyl)-1H-indol-5-yl)difluoromethyl)phosphonic acid]	> 10
CC(=O)N1CC[C@H]2CC[C@@H](C(=O)NC3(c4ccccc4)CCOCC3)N2C(=O)[C@@H](NC(=O)c2cc3cc(C(F)(F)P(=O)(O)O)ccc3[nH]2)C1 [Compound 341, ((2-(((5S,8S,10aR)-3-acetyl-6-oxo-8-((4-phenyltetrahydro-2H-pyran-4-yl)carbamoyl)decahydropyrrolo[1,2-a][1,5]diazocin-5-yl)carbamoyl)-1H-indol-5-yl)difluoromethyl)phosphonic acid]	1 to 10
CC(=O)N1CC[C@H]2CC[C@@H](C(=O)N(Cc3ccccc3)C3CCCCC3)N2C(=O)[C@@H](NC(=O)c2cc3cc(C(F)(F)P(=O)(O)O)ccc3[nH]2)C1 [Compound 342, ((2-(((5S,8S,10aR)-3-acetyl-8-(benzyl(cyclohexyl)carbamoyl)-6-oxodecahydropyrrolo[1,2-a][1,5]diazocin-5-yl)carbamoyl)-1H-indol-5-yl)difluoromethyl)phosphonic acid]	1 to 10
CC(=O)N1CC[C@H]2CC[C@@H](C(=O)N3CCc4c(F)cccc4C3)N2C(=O)[C@@H](NC(=O)c2cc3cc(C(F)(F)P(=O)(O)O)ccc3[nH]2)C1 [Compound 343, ((2-(((5S,8S,10aR)-3-acetyl-8-(5-fluoro-1,2,3,4-tetrahydroisoquinoline-2-carbonyl)-6-oxodecahydropyrrolo[1,2-a][1,5]diazocin-5-yl)carbamoyl)-1H-indol-5-yl)difluoromethyl)phosphonic acid]	1 to 10
CC(=O)N1CC[C@H]2CC[C@@H](C(=O)N3CCc4cc(F)ccc4C3)N2C(=O)[C@@H](NC(=O)c2cc3cc(C(F)(F)P(=O)(O)O)ccc3[nH]2)C1 [Compound 344, ((2-(((5S,8,10aR)-3-acetyl-8-(6-fluoro-1,2,3,4-tetrahydroisoquinoline-2-carbonyl)-6-oxodecahydropyrrolo[1,2-a][1,5]diazocin-5-yl)carbamoyl)-1H-indol-5-yl)difluoromethyl)phosphonic acid]	> 10
CC(=O)N1CC[C@H]2CC[C@@H](C(=O)N3CCc4ccc(F)cc4C3)N2C(=O)[C@@H](NC(=O)c2cc3cc(C(F)(F)P(=O)(O)O)ccc3[nH]2)C1 [Compound 355, ((2-(((5S,8S,10aR)-3-acetyl-8-(7-fluoro-1,2,3,4-tetrahydroisoquinoline-2-carbonyl)-6-oxodecahydropyrrolo[1,2-a][1,5]diazocin-5-yl)carbamoyl)-1H-indol-5-yl)difluoromethyl)phosphonic acid]	> 10

Further lines, results first:

Ki [µM]	Structure (SMILES)
> 10	CC(=O)N1CC[C@H]2CC[C@@H](C(=O)N3CCc4cccc(F)c4C3)N2C(=O)[C@@H](NC(=O)c2cc3cc(C(F)(F)P(=O)(O)O)ccc3[nH]2)C1 [Compound 356, ((2-(((5S,8S,10aR)-3-acetyl-8-(8-fluoro-1,2,3,4-tetrahydroisoquinoline-2-carbonyl)-6-oxodecahydropyrrolo[1,2-a][1,5]diazocin-5-yl)carbamoyl)-1H-indol-5-yl)difluoromethyl)phosphonic acid]
> 10	CC(=O)N1CC[C@H]2CC[C@@H](C(=O)N3CCc4ccc(C)cc4C3)N2C(=O)[C@@H](NC(=O)c2cc3cc(C(F)(F)P(=O)(O)O)ccc3[nH]2)C1 [Compound 357, ((2-(((5S,8S,10aR)-3-acetyl-8-(7-methyl-1,2,3,4-tetrahydroisoquinoline-2-carbonyl)-6-oxodecahydropyrrolo[1,2-a][1,5]diazocin-5-yl)carbamoyl)-1H-indol-5-yl)difluoromethyl)phosphonic acid]
> 10	CC(=O)N1CC[C@H]2CC[C@@H](C(=O)N3CCc4ccc(C(F)(F)F)cc4C3)N2C(=O)[C@@H](NC(=O)c2cc3cc(C(F)(F)P(=O)(O)O)ccc3[nH]2)C1 [Compound 358, ((2-(((5S,8S,10aR)-3-acetyl-6-oxo-8-(7-(trifluoromethyl)-1,2,3,4-tetrahydroisoquinoline-2-carbonyl)decahydropyrrolo[1,2-a][1,5]diazocin-5-yl)carbamoyl)-1H-indol-5-yl)difluoromethyl)phosphonic acid]
0.1 to 1	CC(=O)N1CC[C@H]2CC[C@@H](C(=O)N3Cc4ccccc4C3)N2C(=O)[C@@H](NC(=O)c2cc3cc(C(F)(F)P(=O)(O)O)ccc3[nH]2)C1 [Compound 359, ((2-(((5S,8S,10aR)-3-acetyl-8-(isoindoline-2-carbonyl)-6-oxodecahydropyrrolo[1,2-a][1,5]diazocin-5-yl)carbamoyl)-1H-indol-5-yl)difluoromethyl)phosphonic acid]
> 10	CC(=O)N1CC[C@H]2CC[C@@H](C(=O)N(C)c3ccccc3)N2C(=O)[C@@H](NC(=O)c2cc3cc(C(F)(F)P(=O)(O)O)ccc3[nH]2)C1 [Compound 360, ((2-(((5S,8S,10aR)-3-acetyl-8-(methyl(phenyl)carbamoyl)-6-oxodecahydropyrrolo[1,2-a][1,5]diazocin-5-yl)carbamoyl)-1H-indol-5-yl)difluoromethyl)phosphonic acid]
> 10	CC(=O)N1CC[C@H]2CC[C@@H](C(=O)Nc3ccccc3)N2C(=O)[C@@H](NC(=O)c2cc3cc(C(F)(F)P(=O)(O)O)ccc3[nH]2)C1 [Compound 361, ((2-(((5S,8S,10aR)-3-acetyl-6-oxo-8-(phenylcarbamoyl)decahydropyrrolo [1,2-a][1,5]diazocin-5-yl)carbamoyl)-1H-indol-5-yl)difluoromethyl)phosphonic acid]
1 to 10	CC(=O)N1CC[C@H]2CC[C@@H](C(=O)N(c3ccccc3)c3ccccc3)N2C(=O)[C@@H](NC(=O)c2cc3cc(C(F)(F)P(=O)(O)O)ccc3[nH]2)C1 [Compound 362, ((2-(((5S,8S,10aR)-3-acetyl-8-(diphenylcarbamoyl)-6-oxodecahydropyrrolo[1,2-a][1,5]diazocin-5-yl)carbamoyl)-1H-indol-5-yl)difluoromethyl)phosphonic acid]
